Measured values reported in patent publication US6348478B1, “Biphenylamidine derivatives” (Teijin Limited, priority 1997, dated 2002).
“And” between values parts separate entries of the source, which are not always exact repeats. Identical values can stand only once.

Columns and labels:
human FXa = human FXa (Homo sapiens, UniProt P00742); experiment: Measurement of activated blood coagulation factor X (FXa)-inhibiting action; format: biochemical; conditions: substrate S-2765, 30 minutes incubation, A405, read-out: FXa inhibition activity (IC50)
Protocol: Measurement of activated blood coagulation factor X (FXa)-inhibiting action
(§1) A specimen was dissolved in water or in water containing an organic solvent (DSMO, ethanol or methanol) in a proper concentration to prepare a specimen. 70 μl of the specimen stepwisely diluted with water was mixed with 90 μl of a 100 mM Tris buffer solution (pH 8.4), 20 μl of a 50 mM Tris buffer solution (pH 8.4) of 50 mU/ml human FXa, and a 2 mM substrate (Daiichikagaku. S-2765), incubated for 30 minutes, mixed with 50 μl of 50% acetic acid, and then subjected to the measurement of absorbance (A405). A blank was prepared by adding the Tris buffer solution instead of the FXa, and a control was prepared by adding water instead of the specimen. A 50% inhibition activity (IC50) was determined, and used as the index of the FXa-inhibiting action.

human thrombin = molecular target: T1, human thrombin (Homo sapiens, UniProt P00734); experiment: Measurement of thrombin inhibition action; format: biochemical; conditions: substrate S-2238, 30 minutes incubation, A405
T1 construct: 1U/ml human thrombin
Protocol: Measurement of thrombin inhibition action
as §1, with “70” for “A specimen was dissolved in water or in water containing an organic solvent (DSMO, ethanol or methanol) in a proper concentration to prepare a specimen. 70”, “1U/ml” for “50 mU/ml”, “thrombin,” for “FXa,”, “S-2238),” for “S-2765),”, “thrombin inhibition” for “FXa-inhibiting”

human FXa, sequence (P00742 235-488 limits assumed): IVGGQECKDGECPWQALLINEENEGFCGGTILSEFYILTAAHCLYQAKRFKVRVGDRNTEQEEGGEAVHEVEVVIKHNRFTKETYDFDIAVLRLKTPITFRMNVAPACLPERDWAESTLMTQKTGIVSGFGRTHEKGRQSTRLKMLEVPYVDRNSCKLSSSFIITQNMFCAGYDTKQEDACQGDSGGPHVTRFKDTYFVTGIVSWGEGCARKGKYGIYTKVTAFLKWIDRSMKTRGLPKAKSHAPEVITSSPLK
human FXa, sequence (P00742 41-179 partner limits assumed): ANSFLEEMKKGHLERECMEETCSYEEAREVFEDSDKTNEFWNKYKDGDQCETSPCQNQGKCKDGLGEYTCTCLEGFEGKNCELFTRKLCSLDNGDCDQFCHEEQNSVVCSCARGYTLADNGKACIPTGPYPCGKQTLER

SMILES | IC50 (human FXa) | IC50 (human thrombin)
COC(=O)c1cc(COc2cccc(CN)c2)cc(-c2cccc(C(=N)N)c2)c1 [Example 5] | 1 to 10 µM | > 100 µM
COC(=O)c1cc(COCc2ccccc2)cc(-c2cccc(C(=N)N)c2)c1 [Example 23] | 1 to 10 µM | –
CNc1ccc(OCc2cc(C(=O)OC)cc(-c3cccc(C(=N)N)c3)c2)cc1 [Example 16] | – | 10 to 100 µM
N=C(N)c1cccc(-c2cc(COc3cccc(CCN)c3)cc(C(=O)O)c2)c1 [Example 10] | 1 to 10 µM | > 100 µM
COC(=O)c1cc(COc2ccc(C)cc2N)cc(-c2cccc(C(=N)N)c2)c1 [Example 12] | 1 to 10 µM | > 100 µM
COC(=O)c1cc(COc2ccc3c(c2)CN(C(C)=N)C3)cc(-c2cccc(C(=N)N)c2)c1 [Example 19] | 0.1 to 1 µM | 10 to 100 µM
COC(=O)c1cc(COc2cccc(CCN)c2)cc(-c2cccc(C(=N)N)c2)c1 [Example 9] | 1 to 10 µM | > 100 µM
COC(=O)c1cc(COc2ccc(C(C)C)cc2)cc(-c2cccc(C(=N)N)c2)c1 [Example 3] | 1 to 10 µM | –
CC(C)c1ccc(OCc2cc(C(=O)O)cc(-c3cccc(C(=N)N)c3)c2)cc1 [Example 4] | 1 to 10 µM | –
COC(=O)c1cc(COc2cccc(N)c2)cc(-c2cccc(C(=N)N)c2)c1 [Example 13] | – | > 100 µM
N=C(N)c1cccc(-c2cc(COc3cccc(CN)c3)cc(C(=O)O)c2)c1 [Example 6] | 1 to 10 µM | > 100 µM
COC(=O)c1cc(COc2cccc(CO)c2)cc(-c2cccc(C(=N)N)c2)c1 [Example 15] | 1 to 10 µM and 10 to 100 µM | –
COC(=O)c1cc(COc2cccnc2N)cc(-c2cccc(C(=N)N)c2)c1 [Example 11] | 10 to 100 µM | > 100 µM
COC(=O)c1cc(-c2cccc(C(=N)N)c2)ccc1COc1cccc(CN)c1 [Example 20] | 10 to 100 µM | > 100 µM
COC(=O)c1cc(COc2ccc3c(c2)CNC3)cc(-c2cccc(C(=N)N)c2)c1 [Example 18] | 0.1 to 1 µM | –
